According to patent US10669258B2, “3-sulfonyl-5-aminopyridine-2,4-diol APJ agonists” (BRISTOL-MYERS SQUIBB COMPANY, priority 2016, dated 2020):
pEC50: −log10 of the molar value. Read-outs that look alike come from different tables or passages of the source.

Target: T1, human APJ receptor (Homo sapiens, UniProt P35414)
T1 construct: expressed in transfected cells; host or cells: HEK293
T1 sequence (P35414 1-380): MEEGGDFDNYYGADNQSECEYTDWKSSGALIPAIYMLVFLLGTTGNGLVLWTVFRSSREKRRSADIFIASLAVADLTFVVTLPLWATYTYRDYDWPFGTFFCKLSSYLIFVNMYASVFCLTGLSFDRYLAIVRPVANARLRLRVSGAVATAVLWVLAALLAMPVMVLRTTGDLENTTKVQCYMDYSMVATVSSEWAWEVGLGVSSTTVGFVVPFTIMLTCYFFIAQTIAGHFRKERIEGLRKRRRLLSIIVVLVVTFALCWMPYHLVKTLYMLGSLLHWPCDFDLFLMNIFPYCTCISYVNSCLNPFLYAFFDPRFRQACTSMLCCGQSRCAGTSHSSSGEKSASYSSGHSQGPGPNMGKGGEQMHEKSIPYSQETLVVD
Experiment: Intracellular cAMP accumulation assay (APJ hcAMP, HTRF)
Format: cell-based
Conditions: HEK293 cells stably expressing human APJ receptor, inhibition of forskolin-mediated cAMP production
In short: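 HEK293 cells stably expressing the receptor (5,000/well) treated with compound plus […] and 2 μM forskolin for 30 min at room temperature; cAMP by HTRF against a cAMP standard curve. EC50 from variable-slope sigmoidal fit; Ymax as % of (Pyr1)apelin-13 inhibition.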

[1] = Table 1, read-out: hAPJ cAMP EC50 Potency range
[2] = Table 2, read-out: hAPJ cAMP EC50 Potency range

| pEC50 [1] | Structure (SMILES) | also measured |
| --- | --- | --- |
| 8.00 to 11.00 | CCCCc1nc(O)c(S(=O)(=O)c2ccc(-c3ccccc3C(N)=O)cc2)c(O)c1N1CCCOc2ccccc21 [Example 168, 4′-((6-butyl-5-(3,4-dihydrobenzo[b][1,4]ox-azepin-5(2H)-yl)-2,4-dihydroxypyridin-3-yl)sulfonyl)-[1,1′-biphenyl]-2-carboxamide] | – |
| – | CCN(c1ccccc1)c1c(-c2ccn(C)n2)nc(O)c(C(=O)N2CCC(c3ccc(Cl)cn3)C2)c1O (single isomer, unassigned) [Example 199, (3-(5-chloropyridin-2-yl)pyrrolidin-1-yl)(5-(ethyl(phenyl)amino)-2,4-dihydroxy-6-(1-methyl-1H-pyrazol-3-yl)pyridin-3-yl)methanone] | pEC50 (read-out: Human APJ cAMP Potency range): 8.00 to 11.00 |
| 7.00 to 8.00 | CCCCc1nc(O)c(S(=O)(=O)c2ccc(-c3ccc(F)nc3C)cc2)c(O)c1N(C)c1cccc(F)c1 [Example 109, 6-butyl-3-((4-(6-fluoro-2-methylpyridin-3-yl)phenyl)sulfonyl)-5-((3-fluorophenyl)(methyl)amino)pyridine-2,4-diol] | – |
| 8.00 to 11.00 | CCN(c1ccccc1)c1c(-c2cccc(C)c2)nc(O)c(S(=O)(=O)c2ccc(-c3ccccc3C(=O)N(C)C)cc2)c1O [Example 141, 4′-((5-(ethyl(phenyl)amino)-2,4-dihydroxy-6-(m-tolyl)pyridin-3-yl)sulfonyl)-N,N-dimethyl-[1,1′-biphenyl]-2-carboxamide] | – |
| 8.00 to 11.00 | CCN(c1ccccc1)c1c(-c2cnn(C)c2)nc(O)c(S(=O)(=O)c2ccc(-c3ccc(F)nc3C)cc2)c1O [Example 152, 5-(ethyl(phenyl)amino)-3-((4-(6-fluoro-2-methylpyridin-3-yl)phenyl)sulfonyl)-6-(1-methyl-1H-pyrazol-4-yl)pyridine-2,4-diol] | – |
| – | CCCCc1nc(O)c(C(=O)N2CC[C@H](c3ccccc3)C2)c(O)c1N(CC)c1ccccc1 [Example 066, (R)-(6-butyl-5-(ethyl(phenyl)amino)-2,4-dihydroxypyridin-3-yl)(3-phenylpyrrolidin-1-yl)methanone] | pEC50 (hAPJ cAMP EC50 Potency range, Table 1): 7.00 to 8.00 |
| 8.00 to 11.00 | Cc1nc(F)ccc1-c1ccc(S(=O)(=O)c2c(O)nc(-c3ccn(C)n3)c(N(c3ccccc3)C(C)C)c2O)cc1 [Example 157, 3-((4-(6-fluoro-2-methylpyridin-3-yl)phenyl)sulfonyl)-5-(isopropyl(phen-yl)amino)-6-(1-methyl-1H-pyrazol-3-yl)pyridine-2,4-diol] | – |
| 7.00 to 8.00 | CCCCc1nc(O)c(S(=O)(=O)c2ccc(-c3ccc(F)nc3C)cc2)c(O)c1N(C)c1ccccc1C [Example 198, 6-butyl-3-((4-(6-fluoro-2-methylpyridin-3-yl)phenyl)sulfonyl)-5-(methyl(o-tolyl)amino)pyridine-2,4-diol] | – |
| – | CC(C)N(c1ccccc1)c1c(-c2ccn(C)n2)nc(O)c(C(=O)N2CCC(c3ccc(F)cc3F)C2)c1O (centres unmarked) [Example 209, (3-(2,4-difluorophenyl)pyrrolidin-1-yl)(2,4-dihydroxy-5-(isopropyl(phenyl)amino)-6-(1-methyl-1H-pyrazol-3-yl)pyridin-3-yl)methanone] | pEC50 [2]: 8.00 to 11.00 |
| – | CCN(c1ccccc1)c1c(-c2ccn(C)n2)nc(O)c(C(=O)N2CCC(c3ccccc3F)C2)c1O (centres unmarked) [Example 205, (5-(ethyl(phenyl)amino)-2,4-dihydroxy-6-(1-methyl-1H-pyrazol-3-yl)pyridin-3-yl)(3-(2-fluorophenyl)pyrrolidin-1-yl)methanone] | pEC50 [2]: 8.00 to 11.00 |
| 8.00 to 11.00 | CCCCc1nc(O)c(S(=O)(=O)c2ccc(-c3ccnc(F)c3C)cc2)c(O)c1N1CCCc2ccccc21 [Example 028, 6-butyl-5-(3,4-dihydroquinolin-1(2H)-yl)-3-((4-(2-fluoro-3-methylpyridin-4-yl)phenyl)sulfonyl)pyridine-2,4-diol] | – |
| 8.00 to 11.00 | CCN(c1ccccc1)c1c(-c2cccc(C)c2)nc(O)c(S(=O)(=O)c2ccc(-c3ccccc3C(N)=O)cc2)c1O [Example 144, 4′-((5-(ethyl(phenyl)amino)-2,4-dihydroxy-6-(m-tolyl)pyridin-3-yl)sulfonyl)-[1,1′-biphenyl]-2-carboxamide] | – |
| 8.00 to 11.00 | CCN(c1ccccc1)c1c(-c2ccn(C)n2)nc(O)c(S(=O)(=O)c2ccc(-c3ccccc3C(=O)NC)cc2)c1O [Example 056, 4′-((5-(ethyl(phenyl)amino)-2,4-dihydroxy-6-(1-methyl-1H-pyrazol-3-yl)pyridin-3-yl)sulfonyl)-N-methyl-[1,1′-biphenyl]-2-carboxamide] | – |
| 8.00 to 11.00 | CCCCc1nc(O)c(S(=O)(=O)c2ccc(-c3ccc(F)nc3C)cc2)c(O)c1N1CCCc2ccccc21 [Example 021, 6-butyl-5-(3,4-dihydroquinolin-1(2H)-yl)-3-((4-(6-fluoro-2-methylpyridin-3-yl)phenyl)sulfonyl)pyridine-2,4-diol] | – |
| – | CCN(c1ccccc1)c1c(-c2ccn(C)n2)nc(O)c(C(=O)N2CCC(c3ccc(F)cc3F)C2)c1O (centres unmarked) [Example 201, (3-(2,4-difluorophenyl)pyrrolidin-1-yl)(5-(ethyl(phenyl)amino)-2,4-dihydroxy-6-(1-methyl-1H-pyrazol-3-yl)pyridin-3-yl)methanone] | pEC50 [2]: 8.00 to 11.00 |
| 8.00 to 11.00 | CCCCc1nc(O)c(S(=O)(=O)c2ccc(-c3ccnc(F)c3C)cc2)c(O)c1N(C)c1cccc(OC)c1 [Example 029, 6-butyl-3-((4-(2-fluoro-3-methylpyridin-4-yl)phenyl)sulfonyl)-5-((3-methoxyphenyl)(methyl)amino)pyridine-2,4-diol] | – |
| 7.00 to 8.00 | CCCCc1nc(O)c(S(=O)(=O)c2ccc(Br)cc2)c(O)c1N(C)c1cccc(C)c1 [Example 093, 3-((4-bromophenyl)sulfonyl)-6-butyl-5-(methyl(m-tolyl)amino)pyridine-2,4-diol] | – |
| 8.00 to 11.00 | CCCCc1nc(O)c(S(=O)(=O)c2ccc(-c3ccccc3C(=O)NC)cc2)c(O)c1N1CCCc2ccccc21 [Example 061, 4′-((6-butyl-5-(3,4-dihydroquinolin-1(2H)-yl)-2,4-dihydroxypyridin-3-yl)sulfonyl)-N-methyl-[1,1′-biphenyl]-2-carboxamide] | – |
| 8.00 to 11.00 | CCN(c1cccc(C#N)c1)c1c(-c2ccn(C)n2)nc(O)c(S(=O)(=O)c2ccc(-c3ccccc3C(=O)N(C)C)cc2)c1O [Example 210, 4′-((5-((3-cyano-phenyl)(ethyl)amino)-2,4-dihydroxy-6-(1-methyl-1H-pyrazol-3-yl)pyridin-3-yl)sulfonyl)-N,N-dimethyl-[1,1′-biphenyl]-2-carboxamide] | – |
| 8.00 to 11.00 | CCCCc1nc(O)c(S(=O)(=O)c2ccc(-c3ccccc3C(N)=O)cc2)c(O)c1N(C)c1cccc(C#N)c1 [Example 138, 4′-((6-butyl-5-((3-cyanophenyl)(methyl)amino)-2,4-dihydroxypyridin-3-yl)sulfonyl)-[1,1′-biphenyl]-2-carboxamide] | – |
| 7.00 to 8.00 | CCCCc1nc(O)c(S(=O)(=O)c2ccc(-c3cccnc3C)cc2)c(O)c1N1CCC(C)c2ccccc21 (centres unmarked) [Example 042] | – |
| 8.00 to 11.00 | CCCCc1nc(O)c(S(=O)(=O)c2ccc(-c3ccc(F)nc3C)cc2)c(O)c1N(c1ccccc1)C(C)C [Example 026, 6-butyl-3-((4-(6-fluoro-2-methylpyridin-3-yl)phenyl)sulfonyl)-5-(isopropyl(phenyl)amino)pyridine-2,4-diol] | – |
| 8.00 to 11.00 | CCCCc1nc(O)c(S(=O)(=O)c2ccc(-c3ccncc3C)cc2)c(O)c1N(C)c1ccc(OC)cc1 [Example 037, 6-butyl-5-((4-methoxyphenyl)(methyl)amino)-3-((4-(3-methylpyridin-4-yl)phenyl)sulfonyl)pyridine-2,4-diol] | – |
